Assay results published in patent publication US20180177860A1, “VACCINE […] I[…] GREEN TEA EXTRACT, AND PREPARATION METHOD THEREFOR” (priority 2015, published 2018).

Assays:
[1] = biological target: T1, influenza hemagglutinin protein (Influenza A virus, UniProt P03452); test: LCMS/MS of hemagglutinin protein reacted with EGCG; conditions: EGCG modified in the form of dihydro epigallocatechin (C15H11O6)
T1 construct: host or cells: human cells
Method: In addition, the hemagglutinin protein reacted with EGCG was analyzed through liquid chromatography mass spectrometry (LCMS/MS). The protein bands stained with Coomassie blue were separated by in-gel digestion, subjected to alkylation and de-staining processes, and then prepared into peptide fragments using trypsin. The prepared peptide fragments were analyzed using LCMS/MS [(Q-Exactive mass spectrometer (Thermo Fisher Scientific, Bremen, Germany) coupled with an Easy-nLC system (Thermo Fisher Scientific, Odense, Denmark)].

[2] = 37% formaldehyde; cited from earlier work

T1 sequence (P03452 18-565): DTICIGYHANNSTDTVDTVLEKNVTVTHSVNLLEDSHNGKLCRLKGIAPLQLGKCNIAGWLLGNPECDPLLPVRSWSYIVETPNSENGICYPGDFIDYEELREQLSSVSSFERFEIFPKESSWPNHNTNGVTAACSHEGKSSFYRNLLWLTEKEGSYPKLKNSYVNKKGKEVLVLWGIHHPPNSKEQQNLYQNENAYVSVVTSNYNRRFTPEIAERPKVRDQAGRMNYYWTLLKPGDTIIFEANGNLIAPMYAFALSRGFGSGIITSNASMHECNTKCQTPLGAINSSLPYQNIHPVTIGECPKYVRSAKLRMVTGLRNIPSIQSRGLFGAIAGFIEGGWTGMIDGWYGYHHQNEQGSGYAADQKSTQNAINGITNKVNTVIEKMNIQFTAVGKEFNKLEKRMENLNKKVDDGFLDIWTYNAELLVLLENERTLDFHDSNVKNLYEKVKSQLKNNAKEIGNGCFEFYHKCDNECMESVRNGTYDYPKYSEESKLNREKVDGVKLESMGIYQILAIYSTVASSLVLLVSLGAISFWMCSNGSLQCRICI

| Molecule | binding site of EGCG on hemagglutinin (LCMS/MS) [1] | amount that can lead to death in adults [2] |
| --- | --- | --- |
| (−)-epigallocatechin gallate [EGCG] | bound to the cysteine residue, which is the 152nd amino acid of the influenza hemagglutinin protein | – |
| C=O [formaldehyde] | – | 30 mL |
